Usually IC50 stands for the point on the concentration scale where inhibition reaches its midpoint.

Here are results for 35 molecules from PubChem BioAssay AID489041 (Sanford-Burnham Center for Chemical Genomics, 2010).

Calls of active or inactive are those of the source. The rule behind the calls is not given here.

The test system of this assay is HEK-293T NF-kB luciferase reporter counterscreen, luminescence. Briefly: inhibitors of HEK-293T NF-kB luciferase – HEK-293T cells, luminescence, counter-screen for T-cell antigen receptor NF-kB inhibitors, dose response (AID 489041).
For `COc1ccc(/C=N/Nc2cc(C)nc3ccc(OC)cc23)c(OC)c1`, the IC50 was 25.7 µM (inactive). As for `CCCCCn1c2c(c(=N)c3ccccc31)CCC2`, the IC50 is 1.75 µM. As for `CCOc1ccccc1C1CC(=O)Nc2cc(C)c(C)cc21` (stereo not given), the IC50 is 7.75 µM.

Turning to `O=C(N/N=C/c1c(O)ccc2ccccc12)c1ccc(Br)o1`, the IC50 was 0.55 µM. As for `C[C@]12CCC3C(CCC4=CC(O)CC[C@@]43/C=N/O)C1(O)CCC2C1=CC(=O)OC1` (stereo not given in full), the figure is 0.33 µM; as for `CCOC(=O)c1ccc(NC(=O)Cn2cnc3cc(C)c(C)cc32)cc1`, 0.88 µM; as for `Cc1ccc(C(=O)N/N=C/c2ccc([N+](=O)[O-])s2)cc1`, 4.36 µM. As for `COc1cc(-c2noc(C)c2-c2ccc(N(C)C)nc2)cc(OC)c1OC`, the figure is 1.94 µM; as for `COc1cccc2sc(Nc3nnc(-c4ccccc4Cl)o3)nc12`, > 80 µM (inactive).

In the case of `CCC(=O)N1c2ccc(S(=O)(=O)N3CCN(c4ccc([N+](=O)[O-])cc4)CC3)cc2CC1C` (stereo not given), the IC50 is > 80 µM (inactive).

For the molecule `CSC1=NC(C(Cl)(Cl)Cl)N=C(c2ccc(C)cc2)N1` (stereo not given), the IC50 is 12.5 µM. In the case of `Cc1ccc(C(=O)Nc2cnc3ccccc3c2)cc1` it was 0.83 µM.

In the case of `CCN(CC)c1ccc(-c2nn3c(-c4n[nH]c5c4CCC5)nnc3s2)cc1`, the IC50 was 2.16 µM. As for `COC(=O)c1ccccc1NC(=O)CSc1nc(-c2ccco2)cc(C(F)(F)F)n1`, the figure is 7.95 µM. In the case of `O=C(Nc1ccc(S(=O)(=O)N2CCN(Cc3ccccc3)CC2)cc1)c1cnccn1` it was 1.51 µM. In the case of `O=S(=O)(Nc1ccc(F)cc1Cl)c1ccc(-c2cnc(C3CC3)o2)cc1` it was 1.78 µM; in that of `O=C(c1ccc(Cl)cc1)c1cc([N+](=O)[O-])ccc1N1CCOCC1`, 11.9 µM; in that of `CC(=O)N(C)C1=C(N2CCOCC2)C(=O)c2ccccc2C1=O`, 5.29 µM. For `CCc1ccc(N2C(=O)C(Cl)=C(Nc3ccc(C(=O)N4CCCC4)cc3)C2=O)cc1`, the IC50 is 66.9 µM (inactive). As to `COc1cc(C(=O)Nc2ccc3c(c2)CCN3C(C)=O)cc(OC)c1OC`, the IC50 is 4.83 µM.

On to `CC(=O)O[C@H]1C(=O)[C@@]2(C)[C@H]([C@H](OC(=O)c3ccccc3)[C@]3(O)C[C@H](OC(=O)[C@H](O)[C@@H](NC(=O)c4ccccc4)c4ccccc4)C(C)=C1C3(C)C)[C@]1(OC(C)=O)CO[C@@H]1C[C@@H]2O`, for which the IC50 is > 80 µM (inactive). For the molecule `Cn1nc(C(C)(C)C)cc1C(=O)NCc1cc(F)cc2c1OCOC2`, the concentration for half-maximal inhibition (IC50) is 2.47 µM.

Take `CCS(=O)(=O)c1ncc(Cl)c(C(=O)Nc2ccc(S(=O)(=O)N(C)c3ccccc3)cc2)n1`: the IC50 is 20.2 µM (inactive). As for `NC(=O)CC(NC(=O)c1ccc(Br)cc1)c1ccc(N2CCCCCC2)c([N+](=O)[O-])c1` (stereo not given), the figure is 29.3 µM (inactive); as for `C=C1C(=O)C=C2CN(C(=O)c3ccccc3)[C@@](Cc3ccc(F)cc3)(C(=O)OC)[C@@H]12`, 11 µM; as for `COc1ccc(Cl)cc1NC(=O)CN(C)CC(=O)Nc1ccccc1N1CCOCC1`, 12 µM.

As to `COc1ccc2c(c1)C(=O)N1[C@H]3c4cc(Br)ccc4OC[C@@H]3[C@H](c3ccccc3)[C@]1(C)C(=O)N2`, the IC50 was > 80 µM (inactive). In the case of `CCCCCCCCn1c2c(c(=N)c3c1CCC3)CCCC2` it was 1.43 µM; in that of `Cc1csc2sc(-c3ccnc(SCC(=O)NCc4ccccc4)n3)c(C)c12`, 3.8 µM; in that of `Cc1ccc(N/C(N)=N/c2nc(CSc3nnc(C)s3)cc(=O)[nH]2)c(C)c1`, 4.17 µM. As for `C=CCNC(=S)N/N=C(\C)c1ccccn1`, the figure is > 80 µM (inactive). In the case of `COc1cc(C2c3cc4c(cc3CC3COC(=O)C32)OCO4)cc(OC)c1OC` (stereo not given) it was > 80 µM (inactive). Regarding `Cc1cc(-n2c(C)cc(C(=O)CSc3ncnc4ccccc34)c2C)no1`, the IC50 was 3 µM.

On to `COc1ccc(NC(=O)/C(Cl)=C(/Cl)S(=O)Cc2ccccc2Cl)cn1` (stereo not given), for which the IC50 is 3.95 µM. In the case of `CCCCC(=O)NC(c1ccc(N(C)C)cc1)c1ccc2cccnc2c1O` (stereo not given) it was > 80 µM (inactive).
